Results as given in patent US9017730B2 (The Regents of the University of California, priority 2010, dated 2015).

Assays:
E. coli = assay: in vitro antimicrobial activity, incubated with bacteria for 30 min prior to plating for growth; assay type: cell-based
Experimental: (§1) K180L20 was incubated with bacteria for 30 min prior to plating for growth;

P. aeruginosa = assay: as above; assay type: cell-based
Experimental: as §1

S. aureus = assay: as above; assay type: cell-based
Experimental: as §1

S. epidermidis = assay: as above; assay type: cell-based; details: FIG. 4
Experimental: as §1

[1] = inflammation by histology in rodent infection model; assay type: in vivo, rats; details: rodent open wounds, copolypeptide in solution, versus control treatments
[2] = critical aggregation concentration (CAC) via pyrene fluorescence; assay type: physicochemical; details: in water
Experimental: Polypeptide solutions (2 mL) were dispersed in water at a range of concentrations (2.0×10^−3 to 2.0×10^−12 M). A stock pyrene solution was made by dissolving pyrene in acetone (6.0×10^−2 M). Next, an appropriate amount of the pyrene stock solution was added to give a final concentration of 12×10^−7 M in water and the acetone was evaporated off. To each polypeptide solution, 2.0 mL of the aqueous stock pyrene solution was added to afford a final concentration of 6.0×10^−7 M. Then, each solution was allowed to equilibrate overnight prior to measurements. To record fluorescence spectra, 3.0 mL of each polypeptide solution was added to a 4.0 mL polystyrene covet. The excitation spectra were recorded within a range of 300-360 nm at an emission wavelength of 390 nm. All spectra were run with an integration time of 1 sec/0.5 nm. The ratio of the intensities of two peaks I338/I333 was plotted as a function of polypeptide concentration (M) for each sample. The CACs were determined as the intersection of the extrapolated linear fits of the plot.

[3] = pig, in vivo
[4] = pig, in vivo; remark: listed apart in the source
S. aureus 6538 [5] = assay: porcine infection prevention open-wound model; details: solution (10 mg/mL) applied prior to inoculation
Experimental: Full-thickness 1 cm diameter wounds were made in the dorsal and lateral thorax of a 25-35 kg Yorkshire-cross pig. K180L20 hydrogel (or control buffer) was applied, and after four hr, wounds were inoculated with S. aureus. Wounds were assessed after 48 hr for bacterial counts by standard microbiology methods.

S. aureus 6538 [6] = assay: rodent model of prevention of wound infection (subcutaneous polypropylene mesh); details: solution
Experimental: (§2) In this model, a mesh pre-soaked with phosphate buffered saline (PBS) or K180L20 was inserted subcutaneously into the dorsal cervical region of Sprague-Dawley rats, followed by 10^6 S. aureus or P. aeruginosa. Additional PBS or K180L20 was added, wounds closed, and animals returned to cages for 48 hr.

[7] = test system: P. aeruginosa (Clinical Pig Isolate); assay: as above; details: solution
Experimental: as §2

microbes = assay: in vitro antimicrobial activity, organism not given; assay type: cell-based; details: neutral pH (~7)

| Substance | reduction of bacteria, E. coli (E. coli; 10 μg/ml) | antimicrobial activity against E. coli (E. coli; FIG. 4) | reduction of bacteria, P. aeruginosa (P. aeruginosa; 10 μg/ml) | antimicrobial activity against P. aeruginosa (P. aeruginosa; FIG. 4) | reduction of bacteria, S. aureus (S. aureus; 10 μg/ml) | antimicrobial activity against S. aureus (S. aureus; FIG. 4) | antimicrobial activity against S. epidermidis (S. epidermidis) | inflammation, histopathological evidence [1] | critical aggregation concentration (CAC) [2] [µM] | mononuclear inflammation, edema, or hemorrhage versus controls [3] | neutrophilic inflammation, severity versus controls [3] | serocellular exudates, severity versus controls [3] | inflammation, necrosis, and epithelial coverage versus control-treated wounds [4] | prevention of microbial infection, S. aureus (S. aureus 6538 [5]) | reduction in bacterial population, S. aureus (S. aureus 6538 [6]; 20 μg/ml of copolypeptide) | reduction in bacterial population, S. aureus (S. aureus 6538 [6]; 2 mg/ml) | reduction in bacterial population, P. aeruginosa ([7]; 20 μg/ml of copolypeptide) | reduction in bacterial population, P. aeruginosa ([7]; 2 mg/ml) | antimicrobial activity at neutral pH (microbes) |
| --- | --- | --- | --- | --- | --- | --- | --- | --- | --- | --- | --- | --- | --- | --- | --- | --- | --- | --- | --- |
| Poly(L-Lysine.HCl)55-b-poly(rac-Leucine)20 [K55(rac-L)20] | reduction of bacteria | substantial antimicrobial activity | reduction of bacteria | substantial antimicrobial activity | reduction of bacteria | substantial antimicrobial activity | substantial antimicrobial activity | at or below the level of control treatments | 8.1 | No differences | minimally less severe | mildly | similar | fully prevented microbial infection | 1-3 log | complete (or near complete) reduction | 1-3 log | complete (or near complete) reduction | – |
| Poly(L-glutamate-Na)54-b-poly(rac-leucine)20 [E54(rac-L)20] | – | – | – | – | – | – | – | – | – | – | – | – | – | – | – | – | – | – | low antimicrobial activity |
